In assay [1] the target is T1, hGluR1 flip (Homo sapiens, UniProt P42261).
T1 construct: expressed in transfected cells; host or cells: CHO-K1
In words: AMPA receptor function-enhancing activity using calcium influx as index. Conditions: test compound 30 μM with 3 mM glutamic acid; CHO-K1/GluR1 flip/stargazin-expressing cells; 100% = 3 mM glutamic acid + 300 μM cyclothiazide, 0% = 3 mM glutamic acid alone. Format: cell-based. The essentials:
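CHO-K1 cells co-expressing human GluR1 flip and stargazin, loaded with Calcium5 dye with 1.25 mM probenecid. Test compound at 30 μM added with 3 mM glutamate; fluorescence followed 3 min. Activity % scaled between glutamate alone (0%) and glutamate plus 300 μM cyclothiazide (100%).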

In assay [2] the test system is Long Evans rats. In words: Novel object recognition test. Format: in vivo, rat. Conditions: 1 mg/kg p.o.; for Novel Object Interaction (%): 1 hr before acquisition trial and 1 hr before retention trial, retention trial 48 hr after acquisition, mean ± standard error; for novel object interaction (result in words): rats. An excerpt: Experimental Example 2 Novel Object Recognition Test (1) Animals
Male Long Evans rats were supplied by Japan SLC, and used at 7-week-old in the experiments. After arrival to the vivarium, animals were allowed a minimum of 1 week for acclimation. They were housed under a 12:12-h light/dark cycle in a temperature- and humidity-controlled laboratory and allowed food and water ad libitum.
A test compound was suspended in 0.5% methylcellulose in distilled water and orally administered (p.o.). All test compounds were dosed in a volume of 2 mL/kg body weight for rats.
(3) Novel Object Recognition Test
Novel object recognition test is a test system utilizing the novel object preference characteristics of rodents. This novel object recognition test consists of two trials, “acquisition trial” and “retention trial”, and, when an interval between these two trials is short, rodents spend a longer period for novel object exploration behaviors, and the preference dissipates as the interval gets longer. From this, the behavioral change in the novel object recognition test is considered to reflect the rodents' memory of the object during the acquisition trial. In this experimental example, the retention trial was carried out 48 hr after the acquisition trial. On the day before the test, for acclimation, Long-Evans ats were allowed to freely move about the test box (40×40×50 cm) for 10 minutes. On the test day, the rats were acclimated to the test room for about 1 hr prior to the test. The test compound (Compound A (Example 14), Compound B (Example 48), 1 mg/kg) were orally administered to the rats twice 1 hr before the acquisition trial and 1 hr before the retention trial. For the acquisition trial, two identical objects (A1, A2) were placed in the test box. The rats were put in the test box for 3 min, and the duration contacting each object was measured. The retention trial was carried out 48 hr after the acquisition trial. For the retention trial, the familiar object (A3) used for the acquisition trial and the novel object (B) different shape from A3 were placed in the test box. The rats were put in the test box for 3 min. The duration contacting each object in the acquisition trial and the retention trial, and the novel object interaction (%) was calculated. The novel object interaction (%) was expressed as (the duration contacting the novel object)/[(the duration contacting the novel object)+(the duration contacting the familiar object)]×100(%) at mean±standard error.

T1 sequence (P42261 19-906 isoform P42261-2 limits assumed): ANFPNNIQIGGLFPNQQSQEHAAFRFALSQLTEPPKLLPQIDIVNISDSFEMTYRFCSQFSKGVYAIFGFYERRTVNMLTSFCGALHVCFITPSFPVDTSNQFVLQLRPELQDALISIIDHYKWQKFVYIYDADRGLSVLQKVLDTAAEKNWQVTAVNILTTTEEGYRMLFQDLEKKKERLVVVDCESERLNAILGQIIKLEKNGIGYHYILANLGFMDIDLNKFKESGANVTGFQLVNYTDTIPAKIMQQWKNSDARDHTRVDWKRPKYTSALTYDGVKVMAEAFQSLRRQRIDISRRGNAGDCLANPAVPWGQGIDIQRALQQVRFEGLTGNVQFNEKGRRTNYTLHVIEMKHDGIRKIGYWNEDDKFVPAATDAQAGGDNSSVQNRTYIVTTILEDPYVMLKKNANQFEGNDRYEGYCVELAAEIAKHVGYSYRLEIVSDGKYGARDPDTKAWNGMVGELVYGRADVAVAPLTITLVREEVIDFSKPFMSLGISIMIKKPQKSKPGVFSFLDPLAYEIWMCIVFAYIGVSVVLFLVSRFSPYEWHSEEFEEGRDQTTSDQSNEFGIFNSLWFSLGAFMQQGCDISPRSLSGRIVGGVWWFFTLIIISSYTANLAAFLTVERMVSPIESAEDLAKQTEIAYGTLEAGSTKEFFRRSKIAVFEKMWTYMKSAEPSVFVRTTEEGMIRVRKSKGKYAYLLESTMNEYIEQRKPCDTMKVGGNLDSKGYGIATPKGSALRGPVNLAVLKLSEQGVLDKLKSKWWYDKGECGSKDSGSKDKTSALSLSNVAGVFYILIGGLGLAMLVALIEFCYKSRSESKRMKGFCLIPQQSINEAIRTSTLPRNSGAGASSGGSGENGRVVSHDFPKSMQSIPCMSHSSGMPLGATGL
T1 sequence (Q9Y698 whole entry partner): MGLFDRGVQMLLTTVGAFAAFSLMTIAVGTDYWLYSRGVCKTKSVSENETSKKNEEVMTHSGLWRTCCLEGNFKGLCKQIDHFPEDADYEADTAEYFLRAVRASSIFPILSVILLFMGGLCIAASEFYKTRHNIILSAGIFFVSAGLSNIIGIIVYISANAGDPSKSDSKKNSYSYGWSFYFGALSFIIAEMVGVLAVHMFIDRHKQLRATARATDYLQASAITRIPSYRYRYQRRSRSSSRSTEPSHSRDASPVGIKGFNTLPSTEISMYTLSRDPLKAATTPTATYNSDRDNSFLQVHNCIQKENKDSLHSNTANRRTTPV

Turning to `O=C(c1ccc(-c2cccn3c(=O)c(Br)c(C(F)(F)F)nc23)cc1)N1CCOCC1` [Example 14, 3-bromo-9-(4-(morpholin-4-ylcarbonyl)phenyl)-2-(trifluoromethyl)-4H-pyrido[1,2-a]pyrimidin-4-one], the activation at 30 µM in assay [1] worked out at 94.3%. For the same compound, in assay [2], the “Novel Object Interaction (%)” value stood at 61.94 ± 2.33% and the “novel object interaction (result in words)” value is on record as “increased the novel object interaction”.
Turning to `C[C@H]1CN(C(=O)c2ccc(-c3cccn4c(=O)c(Br)c(C(F)(F)F)nc34)cc2)CCO1` [Example 48, 3-bromo-9-(4-(((2S)-2-methylmorpholin-4-yl)carbonyl)phenyl)-2-(trifluoromethyl)-4H-pyrido[1,2-a]pyrimidin-4-one], the activation at 30 µM in assay [1] is 88.1%. Moreover, in assay [2], the “Novel Object Interaction (%)” value came to 61.42 ± 2.61% and the “novel object interaction (result in words)” value is “increased the novel object interaction”.

The record behind these values is patent publication US11407748B2, “Substituted pyrido[1,2-a]pyrimidines and pyrazino[1,2-a]pyrimidines for enhancing AMPA receptor function” (Takeda Pharmaceutical Company Limited, priority 2017, dated 2022).
